Here are results for eight molecules from ChEMBL document CHEMBL1150824, “New xenicane diterpenoids from the gorgonian Acalycigorgia inermis” (2001).

The test system of one assay is K562. As to the kind of experiment: Cytotoxicity against human K562 cells. It is filed as functional. Particulars: read-out: LC50 (the source's name).
A short description of assay [1]: Inhibition of FPTase up to 20 ug/mL.
Assay [2] can be described thus: Inhibition of FPTase at 10 ug/mL.
In assay [3] the test system is HUVEC. The assay can be described thus: Antiangiogenic activity in HUVEC assessed as inhibition of bFGF-induced tube formation up to 20 ug/mL. It is filed as functional, cell-based. Particulars: Homo sapiens.
The subject of assay [4] is HUVEC. As to the kind of experiment: Antiangiogenic activity in HUVEC assessed as inhibition of bFGF-induced tube formation at 10 ug/mL. Format: functional, cell-based. The conditions noted are these: Homo sapiens.

Values after ≈ are worked out from the molar mass of the structure shown. Active and inactive are the calls of the source. The rule behind the calls is not given here.

`C=C1CC[C@@H]2O[C@@]2(C)CC[C@@H]2[C@H](CC/C=C(\C)C(=O)OC)C(=O)OC[C@@H]12` [ACALYCIXENIOLIDE H]: the CC50 in the assay with K562 turned out to be 3.9 mg/L (≈ 10.8 µM). The result (in assay [1]; in assay [2]; in the assay with HUVEC [3]; with HUVEC [4]) was inactive.
Turning to `C=C1CC/C=C(\C)CC[C@@H]2[C@H](CC/C=C\CO)C(=O)OC[C@@H]12` [ACALYCIXENIOLIDE K], the CC50 in the assay with K562 worked out at 1.8 mg/L (≈ 5.91 µM). Further, the result (in assay [1]; in assay [2]; in the assay with HUVEC [3]; in the assay with HUVEC [4]) was inactive.
For the molecule `C=C1CC/C=C(\C)CC[C@@H]2[C@H](CC/C=C(\C)CO)C(=O)OC[C@@H]12` [ACALYCIXENIOLIDE I], the CC50 in the assay with K562 amounted to 1.2 mg/L (≈ 3.77 µM). The outcome (in assay [1]; in assay [2]; in the assay with HUVEC [3]; with HUVEC [4]) was inactive.
For `C=C1CC/C=C(\C)CC[C@@H]2[C@H](CC/C=C/CO)C(=O)OC[C@@H]12` [ACALYCIXENIOLIDE L], the CC50 in the assay with K562 was 1.5 mg/L (≈ 4.93 µM). In addition, the outcome (in assay [1]; in assay [2]; in the assay with HUVEC [3]; in the assay on HUVEC [4]) was inactive.
Take `C=C1CC/C=C(\C)CC[C@@H]2[C@H](C/C=C/C(C)(C)O)C(=O)OC[C@@H]12` [ACALYCIXENIOLIDE J]: in the assay with K562, the CC50 came out at 2 mg/L (≈ 6.28 µM). The result (in assay [1]; in assay [2]; in the assay on HUVEC [3]; in the assay with HUVEC [4]) was inactive.
Molecule `C=C=CCC(OC(C)=O)C1=CO[C@H](OC(C)=O)[C@H]2C(=C)CC[C@@H]3O[C@@]3(C)CC[C@H]12` (stereo partly specified) displayed an inhibition in assay [2] of 82%. In addition, the outcome in the assay with HUVEC [4] was Active.
For `C=C1CC/C=C(\C)CC[C@@H]2/C(=C\C=C\C(C)(C)O)C(=O)OC[C@@H]12` [9-DEOXYXENIOLIDE A], the CC50 with K562 was determined as 0.04 mg/L (≈ 0.126 µM). In addition, the outcome (in assay [1]; in assay [2]; in the assay with HUVEC [3]; in the assay with HUVEC [4]) was inactive.
`C=C1CC[C@@H]2O[C@@]2(C)CC[C@@H]2[C@H](CCC=C(C)C)C(=O)OC[C@@H]12`: the outcome (in assay [1]; in assay [2]; in the assay with HUVEC [3]; with HUVEC [4]) was inactive.
